Laboratory results from patent US7423159B2, “Agent for preventing or treating neuropathy” (Takeda Pharmaceutical Company Limited, priority 2002, dated 2008).

Experiments:
rat C6 glioma cells = assay: GDNF production promoting action in rat C6 glioma cells (ELISA of culture supernatant); format: cell-based; details: concentration which causes 50% increase of GDNF relative to the control group, cultured 2 days with test compound, GDNF in culture supernatant by ELISA
Experimental: Using rat C6 glioma cells, the GDNF production promoting action of the compound of the present invention was evaluated.
Rat C6 glioma cells (ATCC) were grown in Dulbecco's Modified Eagle's Medium (DMEM) containing 10% FBS (Fetal Bovine Serum) in a collagen type 1 coated 75 cm^2 culture flask (SUMITOMO BAKELITE Co., Ltd.) until near confluent, detached by trypsin treatment and washed once with DMEM containing 10% FBS.
The cells after washing were diluted with 10% FBS-containing DMEM to a concentration of 5×10^4/mL and seeded at 0.3 mL/well in each well of collagen type 1 coated 48 well culture dish (SUMITOMO BAKELITE Co., Ltd.). After 3 days, the culture in the culture dish was placed in a 1% BSA (bovine serum albumin, Sigma)-containing DMEM medium supplemented with various concentrations of test compound, and further cultured for 2 days. The culture supernatant was recovered and preserved at −80° C. until measurement of GDNF.
The content of GDNF in the culture supernatant was measured by the following ELISA Method.
Anti-GDNF antibody (MAB212, R&D) was diluted with TBS (Tris buffered physiological saline: 25 mmol/L Tris-HCl (pH 8.0), 150 mmol/L NaCl) to 2 μg/mL and dispensed at 0.1 mL/well to each well of a 96-well immunoplate. The 96-well immunoplate was incubated overnight at 4° C. and washed once with TBS containing Tween 20 at 0.05% (hereinafter to be abbreviated as TBST). A blocking solution (TBS containing 1% BSA and 5% sucrose) was added at 0.2 mL/well to each well after washing, and the plate was incubated at room temperature for 1 hr., after which each well was washed twice with TBST. The culture supernatant (0.1 mL) of the aforementioned C6 cells was added to each well after washing and the plate was incubated at room temperature for 3 hrs., after which the wells were washed 5 times with TBST. The 500-fold diluted anti-GDNF antibody (G2791, Promega) was added by 0.1 mL to each well after washing, incubated at room temperature for 2 hrs. and washed 5 times with TBST. A 5000-fold diluted horseradish peroxidase-labeled anti-chicken IgY antibody (G1351, Promega) was added at 0.1 mL/well to each well after washing, incubated at room temperature for 2 hrs. and washed 5 times with TBST. A substrate solution (TMB substrate solution, BIO-RAD) was added at 0.1 mL/well to each well after washing and allowed to develop color at room temperature for 8 min. To stop the reaction, 0.1 mL of 1 mol/L phosphoric acid was added to each well in coloring developing reaction. The absorbance of the reaction solution at 450 nm wavelength was measured.
In the same manner as above except the test compound was not used, the ELISA Method was performed and this was used as a control group.
Using various concentrations of GDNF (Promega), ELISA Method was performed in the same manner as above and standard line was prepared.
From the aforementioned absorbance and standard line, GDNF content in a sample was calculated and the concentration (EC50), which causes 50% increase of GDNF relative to the control group was calculated from the regression line.

PC12 cells = assay: neuroprotective action (neurite network formation) in PC12 cells; format: cell-based; details: test compound 0.3-3.0 μmol/L, two days, DMEM with 0.5% FCS and 2 ng/mL NGF; observed under a microscope
Experimental: Using PC12 cells, the neuroprotective action of the compound of the present invention was evaluated.
PC12 cells were precultured for one day in a DMEM (Dulbecco's Modified Eagle's Medium) culture solution containing 10% FCS (Fetal Calf Serum) in an incubator at 37° C., 5% CO2, and seeded at 5×10^3/well in a 24 well plate (Falcon) in the same medium. After the cells adhered to the bottom surface, the culture was changed to a DMEM culture solution containing 0.5% FCS and 2 ng/mL of NGF (Wako Pure Chemical Industries, Ltd.). After culturing overnight, the test compound was added at a concentration of 0.3-3.0 μmol/L and the cells were cultured for two more days. Gultalaldehyde was added to the cultured to a final concentration of 2% and the cells were fixed for 1 hr., after which stained with a Diff-Quick (International Reagents Corporation). The cells were washed, dried with air and observed under a microscope.

[1] = Rattus norvegicus, C6 glioma, 48 h

Compound: COP(=O)(Cc1ccc(NC(=O)/C=C/c2cnn(C)c2-c2ccc(F)cc2)cc1)OC [Example 1, (2E)-N-[4-(dimethylphosphonomethyl)phenyl]-3-[5-(4-fluorophenyl)-1-methyl-1H-pyrazol-4-yl]acrylamide]
- EC50 (rat C6 glioma cells; [1]): 200 nM
- melting point: 209 to 210 °C

Compound: CCOP(=O)(Cc1ccc(NC(=O)/C=C/c2cnn(C)c2-c2ccc(F)cc2)cc1)OCC [Example 2, (2E)-N-[4-(Diethylphosphonomethyl)phenyl]-3-[5-(4-fluorophenyl)-1-methyl-1H-pyrazol-4-yl]acrylamide]
- formation of neurite network (PC12 cells): promoted formation of neurite network
- EC50 (rat C6 glioma cells; [1]): 400 nM

Compound: CCOP(=O)(Cc1ccc(NC(=O)/C=C/c2cnn(C)c2-c2ccc(OC)cc2)cc1)OCC [Example 5, (2E)-N-[4-(Diethylphosphonomethyl)phenyl]-3-[5-(4-methoxyphenyl)-1-methyl-1H-pyrazol-4-yl]acrylamide]
- EC50 (rat C6 glioma cells; [1]): 1000 nM
- melting point: 199 to 200 °C

Compound: CCOP(=O)(Cc1ccc(NC(=O)/C=C/c2cnn(C)c2-c2ccc(Cl)cc2)cc1)OCC [Example 9, (2E)-3-[5-(4-Chlorophenyl)-1-methyl-1H-pyrazol-4-yl]-N-[4-(diethylphosphonomethyl)phenyl]acrylamide]
- EC50 (rat C6 glioma cells; [1]): 2500 nM
- melting point: 217 to 218 °C

Compound: CCOP(=O)(Cc1ccc(NC(=O)/C=C/c2cnn(C)c2-c2ccccc2)cc1)OCC [Example 11, (2E)-N-[4-(Diethylphosphonomethyl)phenyl]-3-(1-methyl-5-phenyl-1H-pyrazol-4-yl)acrylamide]
- EC50 (rat C6 glioma cells; [1]): 900 nM
- melting point: 239 to 240 °C

Compound: CCCCC1(CC)COP(=O)(Cc2ccc(NC(=O)/C=C/c3cnn(C)c3-c3ccc(F)cc3)cc2)OC1 (centres unmarked) [Example 27, (2E)-N-{4-[(5-Butyl-5-ethyl-2-oxide-1,3,2-dioxaphosphinan-2-yl)methyl]phenyl}-3-[5-(4-fluorophenyl)-1-methyl-1H-pyrazol-4-yl]acrylamide]
- EC50 (rat C6 glioma cells): 500 nM

Compound: Cn1ncc(/C=C/C(=O)Nc2ccc(C(O)c3ccccn3)cc2)c1-c1ccc(F)cc1 (centres unmarked) [Example 49, (2E)-3-[5-(4-Fluorophenyl)-1-methyl-1H-pyrazol-4-yl]-N-{4-[hydroxy(2-pyridinyl)methyl]phenyl}acrylamide]
- formation of neurite network (PC12 cells): promoted formation of neurite network
- EC50 (rat C6 glioma cells; [1]): 1600 nM

Compound: Cc1cccc(C(O)c2ccc(NC(=O)/C=C/c3cnn(C)c3-c3ccc(F)cc3)cc2)n1 (centres unmarked) [Example 50, (2E)-3-[5-(4-Fluorophenyl)-1-methyl-1H-pyrazol-4-yl]-N-{4-[hydroxy(6-methyl-2-pyridinyl)methyl]phenyl}acrylamide]
- EC50 (rat C6 glioma cells; [1]): 400 nM

Compound: Cn1ncc(/C=C/C(=O)Nc2ccc(CC3SC(=O)NC3=O)cc2)c1-c1ccc(F)cc1 (centres unmarked) [Example 60, (2E)-N-{4-[(2,4-Dioxo-1,3-thiazolidin-5-yl)methyl]phenyl}-3-[5-(4-fluorophenyl)-1-methyl-1H-pyrazol-4-yl]acrylamide]
- formation of neurite network (PC12 cells): promoted formation of neurite network
- EC50 (rat C6 glioma cells; [1]): 800 nM
- melting point: 149 to 150 °C

Compound: CCOP(=O)(Cc1ccc(NC(=O)/C=C/c2cncn2-c2ccc(F)cc2)cc1)OCC [Example 61, (2E)-N-[4-(Diethylphosphonomethyl)phenyl]-3-[1-(4-fluorophenyl)-1H-imidazol-5-yl]acrylamide]
- EC50 (rat C6 glioma cells; [1]): 400 nM
- melting point: 165 to 166 °C

Compound: CCOP(=O)(Cc1ccc(NC(=O)/C=C/c2snnc2-c2ccc(F)cc2)cc1)OCC [Example 71, (2E)-N-[4-(Diethylphosphonomethyl)phenyl]-3-[4-(4-fluorophenyl)-1,2,3-thiadiazol-5-yl]acrylamide]
- EC50 (rat C6 glioma cells; [1]): 1700 nM
- melting point: 173 to 175 °C

Compound: Cn1ncc(/C=C/C(=O)Nc2ccc(CCc3cscn3)cc2)c1-c1ccc(F)cc1 [Example 91, (2E)-3-[5-(4-Fluorophenyl)-1-methyl-1H-pyrazol-4-yl]-N-{4-[2-(1,3-thiazol-4-yl)ethyl]phenyl}acrylamide]
- EC50 (rat C6 glioma cells; [1]): 490 nM
- melting point: 211 to 212 °C

Compound: CN1C(=O)SC(Cc2ccc(NC(=O)/C=C/c3cnn(C)c3-c3ccc(F)cc3)cc2)C1=O (centres unmarked) [Example 110, (2E)-3-[5-(4-Fluorophenyl)-1-methyl-1H-pyrazol-4-yl]-N-{4-[(3-methyl-2,4-dioxo-1,3-thiazolidin-5-yl)methyl]phenyl}acrylamide]
- formation of neurite network (PC12 cells): promoted formation of neurite network
- EC50 (rat C6 glioma cells; [1]): 310 nM
- melting point: 228 to 229 °C

Compound: CC(=O)Cc1ccc(NC(=O)/C=C/c2cnn(C)c2-c2ccc(F)cc2)cc1 [Example 121, (2E)-3-[5-(4-Fluorophenyl)-1-methyl-1H-pyrazol-4-yl]-N-[4-(2-oxopropyl)phenyl]acrylamide]
- EC50 (rat C6 glioma cells; [1]): 180 nM
- melting point: 186 to 187 °C

Compound: CCCC(=O)NCc1ccc(NC(=O)/C=C/c2cnn(C)c2-c2ccc(F)cc2)cc1 [Example 140, (2E)-N-{4-[(Butyrylamino)methyl]phenyl}-3-[5-(4-fluorophenyl)-1-methyl-1H-pyrazol-4-yl]acrylamide]
- EC50 (rat C6 glioma cells; [1]): 220 nM
- melting point: 259 to 260 °C

Compound: CCOP(=O)(Cc1ccc(NC(=O)/C=C/c2cnn(C)c2-c2ccoc2)cc1)OCC [Example 147, Diethyl 4-[{(2E)-3-[5-(3-furyl)-1-methyl-1H-pyrazol-4-yl]prop-2-enoyl)amino]benzylphosphonate]
- EC50 (rat C6 glioma cells; [1]): 460 nM
- melting point: 208 to 210 °C

Compound: CCOP(=O)(Cc1ccc(NC(=O)/C=C/c2cnn(C)c2-c2cccs2)cc1)OCC [Example 149, Diethyl [4-({(2E)-3-[1-methyl-5-(2-thienyl)-1H-pyrazol-4-yl]prop-2-enoyl}amino)benzyl]phosphonate]
- formation of neurite network (PC12 cells): promoted formation of neurite network
- EC50 (rat C6 glioma cells; [1]): 510 nM
- melting point: 262 to 263 °C

Compound: Cn1ncc(/C=C/C(=O)Nc2ccc(Cn3ccnc3)cc2)c1-c1ccc(F)cc1 [Example 159, (2E)-3-[5-(4-fluorophenyl)-1-methyl-1H-pyrazol-4-yl]-N-[4-(1H-imidazol-1-ylmethyl)phenyl]acrylamide]
- formation of neurite network (PC12 cells): promoted formation of neurite network
- EC50 (rat C6 glioma cells; [1]): 120 nM
- melting point: 213 to 214 °C

Compound: Cn1ncc(/C=C/C(=O)Nc2ccc(Cn3cncn3)cc2)c1-c1ccc(F)cc1 [Example 163, (2E)-3-[5-(4-Fluorophenyl)-1-methyl-1H-pyrazol-4-yl]-N-[4-(1H-1,2,4-triazol-1-ylmethyl)phenyl]acrylamide]
- EC50 (rat C6 glioma cells; [1]): 190 nM
- melting point: 225 to 226 °C

Compound: Cc1nccn1Cc1ccc(NC(=O)/C=C/c2cnn(C)c2-c2ccc(F)cc2)cc1 [Example 190, (2E)-3-[5-(4-Fluorophenyl)-1-methyl-1H-pyrazol-4-yl]-N-{4-[(2-methyl-1H-imidazol-1-yl)methyl]phenyl}acrylamide]
- EC50 (rat C6 glioma cells; [1]): 590 nM
- melting point: 232 to 233 °C

Compound: Cn1ncc(/C=C/C(=O)Nc2ccc(-n3ccnc3)cc2)c1-c1ccc(F)cc1 [Example 195]
- EC50 (rat C6 glioma cells): 120 nM

Compound: (2E)-3-[5-(4-Fluorophenyl)-1-methyl-1H-pyrazol-4-yl]-N-[4-(1-pyrrolidinylmethyl) phenyl]acrylamide [Example 193]
- EC50 (rat C6 glioma cells): 160 nM
